In patent US20080033029A1, “Treating Digestive Tract Conditions” (MAYO FOUNDATION FOR MEDICAL EDUCATION AND RESEARCH, priority 2004, published 2008):

Assays:
[1] = tested on: ICC (interstitial cells of Cajal); test: ICC culture: number of ICC with or without 5HT; format: cell-based, mouse; conditions: 5HT 1 μM added every 12 hours for 24 hours; ICC from 6 day old Balb/C mice; c-kit antibody; untreated 8±0.5; P<0.0004; FIG. 1
Text: (§1) Blinded parallel cultures were established (n=2, 6 day old Balb/C mice yielding 6 coverslips). […] ICC were identified using an antibody to c-kit and counted. Mast cells, which were identified by their characteristic size and round shape, were not included in the analysis.

[2] = tested on: ICC (interstitial cells of Cajal); test: Organotypic culture of adult mouse small intestine explants: ICC number; format: cell-based; conditions: 5HT 1 μM twice daily; explants from 6 month old mice; fixed at day 8; c-Kit staining, confocal 3D
Protocol: Briefly, one cm segments of mouse small intestine were cut, pinned flat mucosa side up, stripped of mucosa and submucosa layers, and placed into fresh, sterile-filtered Kreb's solution with 3 mM antibiotic. Krebs was removed, and DMEM (Dulbecco's Modified Eagle's Media) with 10% FBS (Fetal Bovine Serum) and 1% antibiotic/antimycotic was added to the culture. […] In the control explant, medium was added without 5HT. The tissue was fixed at day 8 and stained using an antibody to c-Kit. […]

[3] = tested on: ICC (interstitial cells of Cajal); 5HT2B receptor; test: ICC culture: effect of 5HT2B receptor antagonist on the 5HT-induced increase in ICC number
Text: as §1

Compound	number of ICC per HPF [1] [ICC per HPF]	number of ICC in explant versus control explant [2]	number of ICC per HPF [3] [ICC per HPF]
NCCc1c[nH]c2ccc(O)cc12 [5HT, Serotonin]	14±0.4	greater number of ICC	
Cc1cc(NC(=O)Nc2ccc3c(ccn3C)c2)sn1 [SB204741]			9±0.2
